Tested on: rabbit aortic rings
Assay: Assay B: In vitro vascular smooth muscle response for AII, antagonist activity in aortic rings
Type: cell-based
Conditions: for Assay B pA2: two determinations separated by /
Method: Assay B: In Vitro Vascular Smooth Muscle-Response for AII
The compounds of the invention were tested for antagonist activity in rabbit aortic rings. Male New Zealand white rabbits (2-2.5 kg) were sacrificed using an overdose of pentobarbital and exsanguinated via the carotid arteries. The thoracic aorta was removed, cleaned of adherent fat and connective tissue and then cut into 3-mm ring segments. The endothelium was removed from the rings by gently sliding a rolled-up piece of filter paper into the vessel lumen. The rings were then mounted in a water-jacketed tissue bath, maintained at 37° C., between moveable and fixed ends of a stainless steel wire with the moveable end attached to an FT03 Grass transducer coupled to a Model 7D Grass Polygraph for recording isometric force responses. The bath was filled with 20 ml of oxygenated (95% oxygen/5% carbon dioxide) Krebs solution of the following composition (mM); 130 NaCl, 15 NaHCO3, […], 1.2 NaH2PO4, 1.2 MgSO4, 2.5 CaCl2, and 11.4 glucose. The preparations were equilibrated for one hour before approximately one gram of passive tension was placed on the rings. Angiotensin II concentration-response curves were then recorded (3×10^−10 to 1×10^−5 M). Each concentration of AII was allowed to elicit its maximal contraction, and then AII was washed out repeatedly for 30 minutes before rechallenging with a higher concentration of AII. Aorta rings were exposed to the test antagonist at 10^−5 M for 5 minutes before challenging with AII. Adjacent segments of the same aorta ring were used for all concentration-response curves in the presence of absence of the test antagonist. The effectiveness of the test compound was expressed in terms of pA2 values and were calculated according to H. O. Schild [Br. J. Pharmacol. Chemother., 2, 189-206 (1947)]. The pA2 value is the concentration of the antagonist which increases the EC50 value for AII by a factor of two. Each test antagonist was evaluated in aorta rings from two rabbits.

| SMILES | Assay B pA2 | Assay B pA2 column, result given as symbol |
| --- | --- | --- |
| CCCc1nc(CCC)n(Cc2ccc(-c3ccccc3-c3nnn[nH]3)cc2)n1 [Compound 12] | 8.59 |  |
| CCCCCc1nc(CCCCC)n(Cc2ccc(-c3ccccc3-c3nnn[nH]3)cc2)n1 [Compound 13] | 8.85 |  |
| CCCCc1nc(CCC)nn1Cc1ccc(-c2ccccc2-c2nnn[nH]2)cc1 [Compound 14] | 8.71 |  |
| CCCCc1nc(CCC)n(Cc2ccc(-c3ccccc3-c3nnn[nH]3)cc2)n1 [Compound 15] | 8.30 |  |
| CCCCc1nc(CCC(C)C)n(Cc2ccc(-c3ccccc3-c3nnn[nH]3)cc2)n1 [Compound 16] | 9.24 |  |
| CCCCc1nc(CCC(C)C)nn1Cc1ccc(-c2ccccc2-c2nnn[nH]2)cc1 [Compound 17] | 8.40 |  |
| CCCCc1ncnn1Cc1ccc(-c2ccccc2C(=O)O)cc1 [Compound 18] | 6.09 |  |
| CCCCc1ncn(Cc2ccc(-c3ccccc3C(=O)O)cc2)n1 [Compound 19] | 5.35 |  |
| CCCCc1nc(-c2ccccc2)n(Cc2ccc(-c3ccccc3-c3nnn[nH]3)cc2)n1 [Compound 22] | 6.46 |  |
| CCCCc1nc(C(OC)OC)nn1Cc1ccc(-c2ccccc2-c2nnn[nH]2)cc1 [Compound 24] | 7.73 |  |
| CCCCc1nc(CCc2ccccc2)n(Cc2ccc(-c3ccccc3-c3nnn[nH]3)cc2)n1 [Compound 25] | 6.73 |  |
| CCCCc1nc(CCc2ccccc2)nn1Cc1ccc(-c2ccccc2-c2nnn[nH]2)cc1 [Compound 26] | 9.66 |  |
| CCCCc1nc(C(=O)CCC)nn1Cc1ccc(-c2ccccc2-c2nnn[nH]2)cc1 [Compound 30] | 7.88 |  |
| CCCCc1nc(CNC(=O)OC(C)(C)C)nn1Cc1ccc(-c2ccccc2-c2nnn[nH]2)cc1 [Compound 35] | 7.47 |  |
| CCCCc1nc(CN)n(Cc2ccc(-c3ccccc3-c3nnn[nH]3)cc2)n1 [Compound 36] | 5.68 |  |
| CCCCc1nc(CC(OCC)OCC)n(Cc2ccc(-c3ccccc3-c3nnn[nH]3)cc2)n1 [Compound 37] | 6.85 |  |
| CCCCc1nc(CC)nn1Cc1ccc(-c2ccccc2-c2nnn[nH]2)cc1 [Compound 39] | 7.84 |  |
| CCCCc1nc(CNC(=O)CCC(NC(C)=O)C(=O)OC(C)(C)C)nn1Cc1ccc(-c2ccccc2-c2nnn[nH]2)cc1 (centres unmarked) [Compound 41] | 5.96 |  |
| CCCCc1nc(CCC2CCCCC2)n(Cc2ccc(-c3ccccc3-c3nnn[nH]3)cc2)n1 [Compound 42] | 6.26 |  |
| CCCCc1nc(CCCO)nn1Cc1ccc(-c2ccccc2-c2nnn[nH]2)cc1 [Compound 45] | 8.24 |  |
| CCCCc1nc(CCCO)n(Cc2ccc(-c3ccccc3-c3nnn[nH]3)cc2)n1 [Compound 46] | 6.64 |  |
| CCCCc1nc(C(F)F)nn1Cc1ccc(-c2ccccc2-c2nnn[nH]2)cc1 [Compound 47] | 7.58 |  |

| SMILES | Assay B pA2 | Assay B pA2 column, result given as symbol |
| --- | --- | --- |
| CCCCc1nc(C(=O)Cc2ccccc2)nn1Cc1ccc(-c2ccccc2-c2nnn[nH]2)cc1 [Compound 50] | 7.89 |  |
| CCCCc1nc(C(F)(F)Cc2ccccc2)nn1Cc1ccc(-c2ccccc2-c2nnn[nH]2)cc1 [Compound 51] | 8.51 |  |
| CCCCc1nc(C(=O)O)nn1Cc1ccc(-c2ccccc2-c2nnn[nH]2)cc1 [Compound 52] | 8.12 |  |
| CCCCc1ncnn1Cc1ccc(-c2ccccc2-c2nnn[nH]2)cc1 [Compound 53] | 7.83 |  |
| CCCCc1nc(CCCC2CCCCC2)nn1Cc1ccc(-c2ccccc2-c2nnn[nH]2)cc1 [Compound 58] | 6.57 |  |
| CCCCc1nc(CC23CC4CC(CC(C4)C2)C3)nn1Cc1ccc(-c2ccccc2-c2nnn[nH]2)cc1 [Compound 62] | 8.61 |  |
| CCCCc1nc(CCC(=O)O)nn1Cc1ccc(-c2ccccc2-c2nnn[nH]2)cc1 [Compound 63] | 7.67 |  |
| CCCCc1nc(CCC(=O)O)n(Cc2ccc(-c3ccccc3-c3nnn[nH]3)cc2)n1 [Compound 64] | 6.77 |  |
| CCCCc1nc(C2CCCCC2)n(Cc2ccc(-c3ccccc3-c3nnn[nH]3)cc2)n1 [Compound 65] | 7.75 |  |
| CCCCc1nc(CCCNC(=O)OC(C)(C)C)n(Cc2ccc(-c3ccccc3-c3nnn[nH]3)cc2)n1 [Compound 67] | 5.78 |  |
| CCCCc1nc(CCCN)n(Cc2ccc(-c3ccccc3-c3nnn[nH]3)cc2)n1 [Compound 71] |  | * (Antagonist Activity not observed up to 10 μM of test compound.) |
| CCCCc1nc(CCCN)nn1Cc1ccc(-c2ccccc2-c2nnn[nH]2)cc1 [Compound 72] | 6.10 |  |
| CCCCc1nc(CC2CCCCC2)n(Cc2ccc(-c3ccccc3-c3nnn[nH]3)cc2)n1 [Compound 73] | 7.46 |  |
| CCCCc1nc(CC2CCCCC2)nn1Cc1ccc(-c2ccccc2-c2nnn[nH]2)cc1 [Compound 74] | 8.39 |  |
| CCCCc1nc(CC)n(Cc2ccc(-c3ccccc3C(=O)O)cc2)n1 [Compound 76] | 5.78 |  |
| CCCCc1nc2c(OC(=O)C(C)C)nnc(O)c2n1Cc1ccc(-c2ccccc2-c2nnn[nH]2)cc1 [Compound 119] | 9.00 |  |
| CCCCc1nc2c(OC(=O)C3CCCCC3)nnc(O)c2n1Cc1ccc(-c2ccccc2-c2nnn[nH]2)cc1 [Compound 120] | 8.77 |  |
| CCCCc1nc2c(OC(=O)Cc3ccccc3)nnc(O)c2n1Cc1ccc(-c2ccccc2-c2nnn[nH]2)cc1 [Compound 124] | 9.12 |  |
| CCCCc1nc(Cc2ccc(-c3ccccc3C(=O)O)cc2)n(CCCC)n1 [Compound 126] | 7.05 |  |
| CCCCc1nc(Cc2ccc(-c3ccccc3-c3nnn[nH]3)cc2)n(CCCC)n1 [Compound 128] | 8.40 |  |
| CCCCn1nc(C(F)(F)CCC)nc1Cc1ccc(-c2ccccc2-c2nnn[nH]2)cc1 [Compound 130] | 7.94 |  |
| CCCCc1nc(Cc2ccc(-c3ccccc3-c3nnn[nH]3)nc2)n(CCCC)n1 [Compound 150] | 7.80 |  |

| SMILES | Assay B pA2 | Assay B pA2 column, result given as symbol |
| --- | --- | --- |
| CCCCn1nc(CCc2ccccc2)nc1Cc1ccc(-c2ccccc2-c2nnn[nH]2)nc1 [Compound 151] | 7.97 |  |
| CCCCn1nc(CCC)nc1Cc1ccc(-c2ccccc2-c2nnn[nH]2)nc1 [Compound 152] | 7.23 |  |
| CCCCn1nc(/C=C/c2cccs2)nc1Cc1ccc(-c2ccccc2-c2nnn[nH]2)nc1 [Compound 154] | 8.38 |  |
| CCCCn1nc(-c2ccccc2Cl)nc1Cc1ccc(-c2ccccc2-c2nnn[nH]2)nc1 [Compound 158] | 8.14 |  |
| CCCCn1nc(C(=O)CCC)nc1Cc1ccc(-c2ccccc2-c2nnn[nH]2)nc1 [Compound 160] | 7.71 |  |
| CCCn1nc(C(C)(F)F)nc1Cc1ccc(-c2ccccc2-c2nnn[nH]2)nc1 [Compound 165] | 7.18 |  |
| CCCCn1nc(C(C)(F)F)nc1Cc1ccc(-c2ccccc2-c2nnn[nH]2)nc1 [Compound 166] | 7.74 |  |
| CCCn1nc(C(F)(F)CC)nc1Cc1ccc(-c2ccccc2-c2nnn[nH]2)nc1 [Compound 167] | 7.11 |  |
| CCCCn1nc(C(F)(F)CC)nc1Cc1ccc(-c2ccccc2-c2nnn[nH]2)nc1 [Compound 168] | 7.58 |  |
| CCCn1nc(C(F)(F)CCC)nc1Cc1ccc(-c2ccccc2-c2nnn[nH]2)nc1 [Compound 169] | 7.58 |  |
| CCCCn1nc(C(=O)NC)nc1Cc1ccc(-c2ccccc2-c2nnn[nH]2)nc1 [Compound 172] | 7.04 |  |
| CCCn1nc(C(OC)OC)nc1Cc1ccc(-c2ccccc2-c2nnn[nH]2)nc1 [Compound 174] | 7.02 |  |
| CCCCn1nc(C(OCC)OCC)nc1Cc1ccc(-c2ccccc2-c2nnn[nH]2)nc1 [Compound 176] | 7.55 |  |
| CCCCn1nc(C(OC(C)C)OC(C)C)nc1Cc1ccc(-c2ccccc2-c2nnn[nH]2)nc1 [Compound 178] | 7.47 |  |
| CCCCc1nc(CCCC)n(Cc2ccc(-c3ccccc3-c3nnn[nH]3)cn2)n1 [Compound 239] | 8.01 |  |
| CCCc1nc(CCC)n(Cc2ccc(-c3ccccc3-c3nnn[nH]3)nc2)n1 [Compound 246] | 7.59 |  |
| CCCCc1nc(C(F)(F)CCC)nn1Cc1ccc(-c2ccccc2-c2nnn[nH]2)nc1 [Compound 247] | 8.41 |  |
| CCCCc1nc(C(F)(F)CCC)n(Cc2ccc(-c3ccccc3-c3nnn[nH]3)nc2)n1 [Compound 248] | 7.50 |  |
| CCCCc1nc(C(=O)N(C)C(C)(C)C)nn1Cc1ccc(-c2ccccc2-c2nnn[nH]2)nc1 [Compound 255] | 7.46 |  |
| CCCCc1nc(C(=O)NC)nn1Cc1ccc(-c2ccccc2-c2nnn[nH]2)nc1 [Compound 257] | 6.68 |  |
| CCCCc1nc(C)nn1Cc1ccc(-c2ccccc2C(=O)O)cc1 [Compound 280] | 6.35 |  |
